From ChEMBL document CHEMBL1201862, “PubChem BioAssay data set” (2004)
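These data come from cells grown in 96-well plates and exposed to compound for 48 hours at five concentrations. GI50 is the concentration that inhibits growth by half.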 The source made the active and inactive calls. No stated cut-off is given here; in the data, active = GI50 up to about 1.1 µM and inactive = higher.

How the values were obtained:
Assay in all cases: NCI anticancer screen, dose series, 48 h
BT-549 = system: BT-549
DU-145 = system: DU-145
HOP-92 = system: HOP-92
Hs-578T = system: Hs-578T
M14 = system: M14
MCF7 = system: MCF7
MDA-MB-435 = system: MDA-MB-435
MOLT-4 = system: MOLT-4
NCI-H226 = system: NCI-H226
NCI-H23 = system: NCI-H23
OVCAR-5 = system: OVCAR-5
RXF 393 = system: RXF 393
SF-295 = system: SF-295
SK-MEL-28 = system: SK-MEL-28
SNB-19 = system: SNB-19
SNB-75 = system: SNB-75
SW-620 = system: SW-620
T47D = system: T47D
U-251 = system: U-251

Measured: GI50

O=C(NCCCCCCCN1CCCCCCC1)C(C1CCCCC1)C1CCCCC1
inactive: BT-549 14.3 µM | DU-145 13.8 µM | HOP-92 9.06 µM | Hs-578T 21.7 µM | M14 2.01 µM | MCF7 7.16 µM | MDA-MB-435 7.67 µM | MOLT-4 1.19 µM | NCI-H226 9.42 µM | NCI-H23 12.9 µM | OVCAR-5 11 µM | RXF 393 5.61 µM | SF-295 11.4 µM | SK-MEL-28 6.08 µM | SNB-19 14.3 µM | SNB-75 9.79 µM | SW-620 12.1 µM | T47D 6.05 µM | U-251 8.51 µM

CC(C)(C)C1=CC(=C(c2ccc(-c3c4nc(c(-c5ccc(C(=C6C=C(C(C)(C)C)C(=O)C(C(C)(C)C)=C6)c6cc(C(C)(C)C)c(O)c(C(C)(C)C)c6)cc5)c5ccc([nH]5)c(-c5ccc(C(=C6C=C(C(C)(C)C)C(=O)C(C(C)(C)C)=C6)c6cc(C(C)(C)C)c(O)c(C(C)(C)C)c6)cc5)c5nc(c(-c6ccc(C(=C7C=C(C(C)(C)C)C(=O)C(C(C)(C)C)=C7)c7cc(C(C)(C)C)c(O)c(C(C)(C)C)c7)cc6)c6ccc3[nH]6)C=C5)C=C4)cc2)c2cc(C(C)(C)C)c(O)c(C(C)(C)C)c2)C=C(C(C)(C)C)C1=O
inactive: BT-549 > 100 µM | DU-145 > 100 µM | HOP-92 > 100 µM | Hs-578T > 100 µM | M14 > 100 µM | MCF7 > 100 µM | MDA-MB-435 > 100 µM | MOLT-4 > 100 µM | NCI-H226 > 100 µM | NCI-H23 > 100 µM | OVCAR-5 > 100 µM | RXF 393 > 70.8 µM | SF-295 > 100 µM | SK-MEL-28 > 100 µM | SNB-19 > 100 µM | SNB-75 > 100 µM | SW-620 > 100 µM | T47D > 100 µM | U-251 > 100 µM

Nc1ccc(Oc2ccc(C34CC5CC(C3)CC(c3ccc(Oc6ccc(N)cc6)cc3)(C5)C4)cc2)cc1
inactive: BT-549 8.69 µM | DU-145 7.43 µM | HOP-92 6.05 µM | Hs-578T 20.2 µM | M14 10.4 µM | MCF7 4.81 µM | MDA-MB-435 7.53 µM | NCI-H226 26.5 µM | NCI-H23 7.8 µM | OVCAR-5 18.6 µM | RXF 393 12.8 µM | SF-295 10.3 µM | SK-MEL-28 18.9 µM | SNB-19 12 µM | SNB-75 24 µM | SW-620 > 25.5 µM | T47D 6.84 µM | U-251 5.43 µM

O=C1C[C@H](CCC(=O)OCc2ccccc2)NC(=O)C[C@H](CCC(=O)OCc2ccccc2)NC(=O)C[C@H](CCC(=O)OCc2ccccc2)N1
inactive: BT-549 24.3 µM | DU-145 > 100 µM | HOP-92 3.92 µM | Hs-578T 5.24 µM | M14 > 100 µM | MCF7 > 100 µM | MDA-MB-435 > 100 µM | MOLT-4 > 100 µM | NCI-H226 > 100 µM | NCI-H23 52.8 µM | OVCAR-5 > 100 µM | RXF 393 2.36 µM | SF-295 8.81 µM | SK-MEL-28 > 100 µM | SNB-19 9.98 µM | SNB-75 2.22 µM | SW-620 > 100 µM | T47D 44.3 µM | U-251 5.24 µM

O=C(O)CC12CC3CC(CC(O)(C3)C1)C2
inactive: BT-549 > 100 µM | DU-145 > 100 µM | HOP-92 > 100 µM | Hs-578T 27.5 µM | M14 > 100 µM | MCF7 > 100 µM | MDA-MB-435 > 100 µM | NCI-H226 > 100 µM | NCI-H23 > 100 µM | OVCAR-5 > 100 µM | RXF 393 > 100 µM | SF-295 > 100 µM | SK-MEL-28 > 100 µM | SNB-19 > 100 µM | SNB-75 > 100 µM | SW-620 > 100 µM | T47D > 100 µM | U-251 > 100 µM

CC(=O)OCc1cn(S(=O)(=O)c2ccc(C)cc2)cn1
inactive: BT-549 > 100 µM | DU-145 > 100 µM | HOP-92 > 100 µM | Hs-578T 36.5 µM | M14 25.3 µM | MCF7 25.2 µM | MDA-MB-435 19.6 µM | MOLT-4 46.5 µM | NCI-H226 > 100 µM | NCI-H23 > 100 µM | RXF 393 > 100 µM | SF-295 > 100 µM | SK-MEL-28 > 100 µM | SNB-19 > 100 µM | SNB-75 > 100 µM | SW-620 43 µM | T47D > 100 µM | U-251 > 100 µM

COC(=O)/C=C(/C=C1/C(C#N)=C(N)N(c2ccc(Cl)cc2)C1(C)/C(=C\C(=O)OC)C(=O)OC)C(=O)OC (stereo not drawn)
inactive: BT-549 15.7 µM | DU-145 35.5 µM | HOP-92 5.71 µM | Hs-578T 42.8 µM | M14 19.5 µM | MCF7 20.7 µM | MDA-MB-435 18.5 µM | MOLT-4 23.3 µM | NCI-H226 24.1 µM | NCI-H23 19.2 µM | OVCAR-5 21.3 µM | RXF 393 19.2 µM | SF-295 22.8 µM | SK-MEL-28 18.9 µM | SNB-19 41.9 µM | SNB-75 25.6 µM | SW-620 15.9 µM | T47D 18.3 µM | U-251 26.1 µM

CCc1nn(CN2CCOCC2)c(=S)n1/N=C/c1ccc(-c2ccc(Cl)cc2)o1
inactive: BT-549 > 100 µM | DU-145 > 100 µM | HOP-92 > 100 µM | Hs-578T > 100 µM | M14 > 100 µM | MCF7 > 100 µM | MDA-MB-435 > 100 µM | MOLT-4 > 100 µM | NCI-H226 > 100 µM | NCI-H23 > 100 µM | OVCAR-5 > 100 µM | RXF 393 > 100 µM | SF-295 > 100 µM | SK-MEL-28 > 100 µM | SNB-75 50.8 µM | SW-620 > 100 µM | T47D > 100 µM | U-251 > 100 µM

CCOC(=O)Cn1c(C)nc2nn(Cc3ccccc3)cc2c1=O
inactive: BT-549 > 100 µM | DU-145 > 100 µM | HOP-92 > 100 µM | Hs-578T > 100 µM | M14 > 100 µM | MCF7 > 100 µM | MDA-MB-435 > 100 µM | MOLT-4 > 100 µM | NCI-H226 > 100 µM | NCI-H23 > 100 µM | OVCAR-5 > 100 µM | RXF 393 > 100 µM | SF-295 > 100 µM | SK-MEL-28 > 100 µM | SNB-19 > 100 µM | SW-620 > 100 µM | T47D > 100 µM | U-251 > 100 µM

O=C(NC(Cc1c[nH]c2ccccc12)C(=O)Nc1ccc(Br)cc1)OCc1ccccc1 (stereo not drawn)
inactive: BT-549 14.8 µM | DU-145 13.3 µM | HOP-92 5.18 µM | Hs-578T 18.9 µM | M14 11.8 µM | MCF7 10.4 µM | MDA-MB-435 8.83 µM | MOLT-4 4.53 µM | NCI-H226 14.5 µM | NCI-H23 11.8 µM | OVCAR-5 17.2 µM | RXF 393 9.33 µM | SF-295 9.23 µM | SK-MEL-28 14.3 µM | SNB-19 21.1 µM | SNB-75 14.7 µM | SW-620 16 µM | T47D 10 µM | U-251 12 µM

O=C1CCC(=O)N1CNc1ccc2c(c1)S(=O)(=O)c1ccccc1O2
inactive: BT-549 > 100 µM | DU-145 > 100 µM | HOP-92 > 100 µM | Hs-578T > 100 µM | M14 > 100 µM | MCF7 > 100 µM | MDA-MB-435 > 100 µM | MOLT-4 > 100 µM | NCI-H226 > 100 µM | NCI-H23 > 100 µM | OVCAR-5 > 100 µM | RXF 393 > 100 µM | SF-295 > 100 µM | SK-MEL-28 > 100 µM | SNB-19 > 100 µM | SW-620 > 100 µM | T47D > 100 µM | U-251 > 100 µM

O=S(=O)(O)c1cc(O)c(/N=N\C2S(=O)(=O)OCCOS2(=O)=O)c2ccccc12
inactive: BT-549 > 100 µM | DU-145 > 100 µM | HOP-92 > 100 µM | Hs-578T > 100 µM | M14 > 100 µM | MCF7 > 100 µM | MDA-MB-435 > 100 µM | MOLT-4 30.6 µM | NCI-H226 > 100 µM | NCI-H23 > 100 µM | OVCAR-5 > 100 µM | RXF 393 > 100 µM | SF-295 51.4 µM | SK-MEL-28 > 100 µM | SNB-19 56.5 µM | SNB-75 25.6 µM | SW-620 > 100 µM | T47D > 100 µM | U-251 71.8 µM

COc1ccc(C(=O)c2sc(N(C)C)nc2-c2ccccc2)cc1
inactive: BT-549 26.1 µM | DU-145 49 µM | HOP-92 91.6 µM | Hs-578T 38.7 µM | M14 35.3 µM | MCF7 21.6 µM | MDA-MB-435 6.4 µM | MOLT-4 81.3 µM | NCI-H226 67.5 µM | NCI-H23 34.5 µM | OVCAR-5 36.7 µM | RXF 393 54.3 µM | SK-MEL-28 32.1 µM | SNB-19 64.3 µM | SNB-75 35.2 µM | SW-620 30.9 µM | T47D 33.6 µM | U-251 43 µM

O=C(Nc1ccccc1Cl)c1cc(S(=O)(=O)Nc2n[nH]c(=O)n2-c2ccccc2)c(S)cc1Cl
inactive: BT-549 > 100 µM | DU-145 > 100 µM | HOP-92 > 100 µM | Hs-578T > 100 µM | M14 > 100 µM | MCF7 > 100 µM | MDA-MB-435 > 100 µM | MOLT-4 > 100 µM | NCI-H226 > 100 µM | NCI-H23 > 100 µM | OVCAR-5 > 100 µM | RXF 393 > 100 µM | SF-295 > 100 µM | SK-MEL-28 > 100 µM | SNB-19 92.3 µM | SW-620 > 100 µM | T47D > 100 µM | U-251 > 100 µM
